Experimental data published in patent US6706663B2, “Herbicidal 3-heterocyclic substituted benzisothiazole and benzisoxazole compounds” (Wyeth, priority 2000, dated 2004).

Assays:
GALAP (Galium aparine) [1] = test: Postemergence herbicidal evaluation; assay type: in vivo; conditions: for GALAP herbicidal rating: postemergence
Outline: (§1)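 Seedlings grown for about two weeks were sprayed postemergence and then kept under standard greenhouse care. Injury was rated visually 4–5 weeks after treatment on a 0–9 scale against untreated controls, and ratings from repeat tests were averaged.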

SETVI (Setaria viridis) [2] = test: Postemergence herbicidal evaluation; assay type: in vivo, (L.) Beau; conditions: for SETVI herbicidal rating: postemergence
Outline: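 Ratings use a 0-9 visual scale covering stand, vigor, malformation, size, chlorosis and appearance versus a control, scored 4-5 weeks post-spray. Roughly two-week-old seedlings received about 0.0040-1.000 kg/ha active, applied in 50/50 acetone/water with 0.5% TWEEN 20. Multiple tests per compound were averaged.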

[3] = system: GLXMAW (Soybean, Williams); test: Postemergence herbicidal evaluation; assay type: in vivo, Glycine max, (L.) Merr. cv Williams; conditions: for GLXMAW herbicidal rating: postemergence
Outline: as §1

GALAP (Galium aparine) [4] = test: Preemergence herbicidal evaluation; assay type: in vivo; conditions: preemergence, rated 4-5 weeks after treatment
Outline: (§2)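 Greenhouse preemergence test: freshly planted cups were sprayed once with an aqueous acetone solution of compound. Injury was judged visually on a 0–9 scale relative to a control, four to five weeks later.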

[5] = system: IPOHE (Ipomoea hederacea); test: Preemergence herbicidal evaluation; assay type: in vivo, (L.) Jacq.; conditions: preemergence, rated 4-5 weeks after treatment
[6] = system: ECHCG (Echinochloa crus-galli); test: Preemergence herbicidal evaluation; assay type: in vivo, (L.) Beau; conditions: preemergence, rated 4-5 weeks after treatment
Outline: as §2

SETVI (Setaria viridis) [7] = test: Preemergence herbicidal evaluation; assay type: in vivo, (L.) Beau; conditions: preemergence, rated 4-5 weeks after treatment
Outline: as §2

[8] = system: GLXMAW (Soybean, Williams); test: Preemergence herbicidal evaluation; assay type: in vivo, Glycine max, (L.) Merr. cv Williams; conditions: preemergence, rated 4-5 weeks after treatment
ZEAMX (Corn, Field) = test: Preemergence herbicidal evaluation; assay type: in vivo, Zea mays, L.; conditions: preemergence, rated 4-5 weeks after treatment
CYPIR (Cyperus iria) = test: Flooded paddy, preemergence weed control; assay type: in vivo; conditions: rated 3-4 weeks after treatment, 0-9 rating scale
Outline: (§3)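 Seeds or propagules were planted in the top 0.5 cm of silt loam soil and kept flooded 1.5–3 cm above the surface throughout, then held in the greenhouse. Injury was rated visually on a 0–9 scale against untreated controls, covering stand, vigor, malformation, size and chlorosis.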

[9] = system: MOOVA (Monochoria vaginalis); test: Flooded paddy, preemergence weed control; assay type: in vivo, Presl.; conditions: rated 3-4 weeks after treatment, 0-9 rating scale
Outline: as §3

1-methyl-3-[3-(1,3-oxathiolan-2-yl)-1,2-benzisothiazol-5-yl]-6-(trifluoromethyl)uracil S′,S′-dioxide [Compound 32]
Postemergence herbicidal rating, GALAP (GALAP (Galium aparine) [1]; rate 0.0320 kg/ha): 2.0 | Postemergence herbicidal rating, GALAP (GALAP (Galium aparine) [1]; rate 0.0620 kg/ha): 6.0 | Postemergence herbicidal rating, SETVI (SETVI (Setaria viridis) [2]; rate 0.0320 kg/ha): 3.0 | Postemergence herbicidal rating, SETVI (SETVI (Setaria viridis) [2]; rate 0.0620 kg/ha): 6.0 | Postemergence herbicidal rating, GLXMAW ([3]; rate 0.0320 kg/ha): 8.0 | Postemergence herbicidal rating, GLXMAW ([3]; rate 0.0620 kg/ha): 9.0 | GALAP preemergence herbicidal rating (GALAP (Galium aparine) [4]; Rate 0.0620 kg/ha): 9.0 | GALAP preemergence herbicidal rating (GALAP (Galium aparine) [4]; Rate 0.1250 kg/ha): 9.0 | GALAP preemergence herbicidal rating (GALAP (Galium aparine) [4]; Rate 0.2500 kg/ha): 9.0 | IPOHE preemergence herbicidal rating ([5]; Rate 0.0620 kg/ha): 9.0 | IPOHE preemergence herbicidal rating ([5]; Rate 0.1250 kg/ha): 9.0 | IPOHE preemergence herbicidal rating ([5]; Rate 0.2500 kg/ha): 9.0 | ECHCG preemergence herbicidal rating ([6]; Rate 0.0620 kg/ha): 6.5 | ECHCG preemergence herbicidal rating ([6]; Rate 0.1250 kg/ha): 9.0 | ECHCG preemergence herbicidal rating ([6]; Rate 0.2500 kg/ha): 9.0 | SETVI preemergence herbicidal rating (SETVI (Setaria viridis) [7]; Rate 0.0620 kg/ha): 9.0 | SETVI preemergence herbicidal rating (SETVI (Setaria viridis) [7]; Rate 0.1250 kg/ha): 9.0 | SETVI preemergence herbicidal rating (SETVI (Setaria viridis) [7]; Rate 0.2500 kg/ha): 9.0 | GLXMAW preemergence herbicidal rating ([8]; Rate 0.0620 kg/ha): 6.5 | GLXMAW preemergence herbicidal rating ([8]; Rate 0.1250 kg/ha): 9.0 | GLXMAW preemergence herbicidal rating ([8]; Rate 0.2500 kg/ha): 9.0 | ZEAMX preemergence herbicidal rating (ZEAMX (Corn, Field); Rate 0.0620 kg/ha): 6.0 | ZEAMX preemergence herbicidal rating (ZEAMX (Corn, Field); Rate 0.1250 kg/ha): 9.0 | ZEAMX preemergence herbicidal rating (ZEAMX (Corn, Field); Rate 0.2500 kg/ha): 9.0 | herbicidal rating, CYPIR (CYPIR (Cyperus iria); rate 0.0320 kg/ha): 4.0 | herbicidal rating, CYPIR (CYPIR (Cyperus iria); rate 0.1250 kg/ha): 7.0 | herbicidal rating, MOOVA ([9]; rate 0.0320 kg/ha): 6.0 | herbicidal rating, MOOVA ([9]; rate 0.1250 kg/ha): 9.0

Cn1c(C(F)(F)F)cc(=O)n(-c2ccc3snc(C4OCC(CS(C)(=O)=O)O4)c3c2)c1=O (single isomer, unassigned) [Compound 86, 1-methyl-3-[3-[4-[(methylsulfonyl)methyl]-1,3-dioxolan-2-yl]-1,2-benzisothiazol-5-yl]-6-(trifluoromethyl)uracil]
GALAP herbicidal rating (GALAP (Galium aparine) [1]; rate 0.0320 kg/ha): 9.0 | GALAP herbicidal rating (GALAP (Galium aparine) [1]; rate 0.0620 kg/ha): 9.0 | SETVI herbicidal rating (SETVI (Setaria viridis) [2]; rate 0.0320 kg/ha): 8.0 | SETVI herbicidal rating (SETVI (Setaria viridis) [2]; rate 0.0620 kg/ha): 9.0 | GLXMAW herbicidal rating ([3]; rate 0.0320 kg/ha): 9.0 | GLXMAW herbicidal rating ([3]; rate 0.0620 kg/ha): 9.0 | Preemergence herbicidal rating GALAP (GALAP (Galium aparine) [4]; rate 0.0620 kg/ha): 3.0 | Preemergence herbicidal rating GALAP (GALAP (Galium aparine) [4]; rate 0.1250 kg/ha): 4.0 | Preemergence herbicidal rating GALAP (GALAP (Galium aparine) [4]; rate 0.2500 kg/ha): 9.0 | Preemergence herbicidal rating IPOHE ([5]; rate 0.0620 kg/ha): 4.0 | Preemergence herbicidal rating IPOHE ([5]; rate 0.1250 kg/ha): 9.0 | Preemergence herbicidal rating IPOHE ([5]; rate 0.2500 kg/ha): 9.0 | Preemergence herbicidal rating ECHCG ([6]; rate 0.0620 kg/ha): 7.5 | Preemergence herbicidal rating ECHCG ([6]; rate 0.1250 kg/ha): 9.0 | Preemergence herbicidal rating ECHCG ([6]; rate 0.2500 kg/ha): 9.0 | Preemergence herbicidal rating SETVI (SETVI (Setaria viridis) [7]; rate 0.0620 kg/ha): 7.5 | Preemergence herbicidal rating SETVI (SETVI (Setaria viridis) [7]; rate 0.1250 kg/ha): 9.0 | Preemergence herbicidal rating SETVI (SETVI (Setaria viridis) [7]; rate 0.2500 kg/ha): 9.0 | Preemergence herbicidal rating GLXMAW ([8]; rate 0.0620 kg/ha): 7.0 | Preemergence herbicidal rating GLXMAW ([8]; rate 0.1250 kg/ha): 9.0 | Preemergence herbicidal rating GLXMAW ([8]; rate 0.2500 kg/ha): 9.0 | Preemergence herbicidal rating ZEAMX (ZEAMX (Corn, Field); rate 0.0620 kg/ha): 5.0 | Preemergence herbicidal rating ZEAMX (ZEAMX (Corn, Field); rate 0.1250 kg/ha): 8.0 | Preemergence herbicidal rating ZEAMX (ZEAMX (Corn, Field); rate 0.2500 kg/ha): 9.0 | CYPIR herbicidal rating (CYPIR (Cyperus iria); rate 0.0320 kg/ha): 0.0 | CYPIR herbicidal rating (CYPIR (Cyperus iria); rate 0.1250 kg/ha): 0.0 | MOOVA herbicidal rating ([9]; rate 0.0320 kg/ha): 5.0 | MOOVA herbicidal rating ([9]; rate 0.1250 kg/ha): 9.0
